How the values were obtained:
[1] = Cytotoxicity against C57BL/6J mouse peritoneal macrophages assessed as reduction of cell viability at 10 uM incubated for 24 hrs in presence of LPS by MTT assay; format: cell-based, Peritoneal macrophage
Peritoneal macrophage = assay: Inhibition of LPS-induced NO production in C57BL/6J mouse peritoneal macrophages at 10 uM measured after 24 hrs in presence of LPS by Griess reagent based assay relative to control; format: functional
[2] = Inhibition of mouse CTLL-2 cells activity at 10 uM incubated for 24 hrs; format: functional

SMILES | inhibition at 24 h, 10 µM [1] | inhibition at 10 µM (Peritoneal macrophage) | inhibition at 10 µM [2]
CCCCCCCCCCCCCCCC(=O)Oc1c(OC)cc(C=O)c2c1[C@@]13CCN(C)[C@@H](C2)[C@H]1C=C(OC)C(=O)C3 | -1.9% | 21% | 32.2%
C/C=C/C=C/C(=O)Oc1c(OC)ccc2c1[C@@]13CCN(C)[C@@H](C2)[C@H]1C[C@@H](OC)C(=O)C3 | 5.1% | 40.7% | 1.1%
COC1=C[C@@H]2[C@@H]3Cc4c(C=O)cc(OC)c(OC(=O)/C=C/c5ccccc5)c4[C@]2(CCN3C)CC1=O | 0.6% | 21.6% | 4.7%
C=CCCCCCCCCC(=O)OCc1cc(OC)c(OC(=O)CCCCCCCCC=C)c2c1C[C@H]1[C@H]3C=C(OC)C(=O)C[C@@]23CCN1C | 9.3% | -0.9% | 33.9%
CCCCCCCC/C=C/CCCCCCCCCCCC(=O)OCc1cc(OC)c(OC(=O)CCCCCCCCCCC/C=C/CCCCCCCC)c2c1C[C@H]1[C@H]3C=C(OC)C(=O)C[C@@]23CCN1C | 0.2% | 1.1% | 6.7%
C/C=C/C=C/C(=O)Oc1c(OC)ccc2c1[C@@]13CCN(C)[C@@H](C2)[C@H]1C=C(OC)C(=O)C3 | 0.3% | 46.9% | 14.3%
C/C=C/C=C/C(=O)Oc1c(OC)cc(C=O)c2c1[C@@]13CCN(C)[C@@H](C2)[C@H]1C=C(OC)C(=O)C3 | 1.4% | 46% | 14%
COC1=C[C@@H]2[C@@H]3Cc4c(C=O)cc(OC)c(OC(C)=O)c4[C@]2(CCN3C)CC1=O | 0.2% | 0.6% | 10.3%
CCCCCCCCCCCC(=O)OCc1cc(OC)c(OC(=O)CCCCCCCCCCC)c2c1C[C@H]1[C@H]3C=C(OC)C(=O)C[C@@]23CCN1C | 6.2% | 3.4% | 6.8%
C/C=C/C=C/C(=O)OCc1cc(OC)c(OC(=O)/C=C/C=C/C)c2c1C[C@H]1[C@H]3C=C(OC)C(=O)C[C@@]23CCN1C | 6.1% | 90.8% | 6.2%
COC1=C[C@@H]2[C@@H]3Cc4c(C=O)cc(OC)c(O)c4[C@]2(CCN3C)CC1=O | 2.5% | 4.2% | 3.5%
COC1=C[C@@H]2[C@@H]3Cc4ccc(OC)c(OC(=O)/C=C/c5ccccc5)c4[C@]2(CCN3C)CC1=O | -3.3% | 61.1% | 5.4%
CCCCCCCCCCCCCCCC(=O)Oc1c(OC)ccc2c1[C@@]13CCN(C)[C@@H](C2)[C@H]1C[C@@H](OC)C(=O)C3 | 1.7% | 93.5% | 45.3%
CCCCCCCCCCCCCC(=O)OCc1cc(OC)c(OC(=O)CCCCCCCCCCCCC)c2c1C[C@H]1[C@H]3C=C(OC)C(=O)C[C@@]23CCN1C | 2.5% | 10.1% | -0.9%
CCCCCCCC/C=C/CCCCCCCCCCCC(=O)Oc1c(OC)cc(C=O)c2c1[C@@]13CCN(C)[C@@H](C2)[C@H]1C=C(OC)C(=O)C3 | 0.5% | 18.6% | 29.6%
C/C=C/C[C@@H](C)[C@@H](O)[C@H]1C(=O)N[C@@H](CC)C(=O)N(C)CC(=O)N(C)[C@@H](CC(C)C)C(=O)N[C@@H](C(C)C)C(=O)N(C)[C@@H](CC(C)C)C(=O)N[C@@H](C)C(=O)N[C@H](C)C(=O)N(C)[C@@H](CC(C)C)C(=O)N(C)[C@@H](CC(C)C)C(=O)N(C)[C@@H](C(C)C)C(=O)N1C [CYCLOSPORINE] | – | – | 96.8%
COc1ccc2c(c1OC(C)=O)[C@@]13CCN(C)[C@@H](C2)[C@H]1C[C@@H](OC)C(=O)C3 | 3.2% | 5.6% | 12.5%
